Here are results for 36 molecules from PMC4203866, “Identification of plant-derived natural products as potential inhibitors of the Mycobacterium tuberculosis proteasome” (BMC Complementary and Alternative Medicine, 2014).

The term IC50 denotes the concentration at which inhibition is half-maximal. Higher therefore signals a need for much substance.

For the test, the target named is T1, Mtb proteasome (Mycobacterium tuberculosis, UniProt P9WHT9).
T1 construct: Proteasome activity of the supernatants was assessed; endogenous in cells; host or cells: Mycobacterium tuberculosis H37Ra (crude lysate supernatant)
As to the kind of experiment: biochemical. The conditions noted are these: for inhibition at 200 µM: 0.5 h, read-out: IA: inhibitory activity of Mtb proteasome.

T1 sequence (P9WHT9 58-291): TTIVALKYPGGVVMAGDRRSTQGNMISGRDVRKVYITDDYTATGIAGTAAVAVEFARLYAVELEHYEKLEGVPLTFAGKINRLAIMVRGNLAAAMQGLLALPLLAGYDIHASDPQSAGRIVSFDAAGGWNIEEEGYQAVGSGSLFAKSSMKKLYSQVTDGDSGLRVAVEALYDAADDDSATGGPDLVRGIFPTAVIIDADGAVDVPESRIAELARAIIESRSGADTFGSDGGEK
T1 sequence (P9WHU1 whole entry partner): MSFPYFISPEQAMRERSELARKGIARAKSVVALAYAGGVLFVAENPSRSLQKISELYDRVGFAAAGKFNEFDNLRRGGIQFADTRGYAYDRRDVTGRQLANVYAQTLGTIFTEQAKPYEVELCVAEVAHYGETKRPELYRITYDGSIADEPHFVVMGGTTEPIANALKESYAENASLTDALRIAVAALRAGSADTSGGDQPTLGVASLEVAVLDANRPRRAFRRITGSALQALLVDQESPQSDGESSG

Turning to `COc1ccc(-c2cc(=O)c3c(O)c(OC)c(O)c(OC)c3o2)cc1` [nevadensin], the inhibition at 200 µM was 48%. Same read-out and setting: with `COc1ccc2ccc(=O)oc2c1CC=C(C)C` [osthole] the figure was 0%; with `CC(=O)O[C@H]1C(=O)[C@@]2(C)[C@H]([C@H](OC(=O)c3ccccc3)[C@]3(O)C[C@H](OC(=O)[C@H](O)[C@@H](NC(=O)c4ccccc4)c4ccccc4)C(C)=C1C3(C)C)[C@]1(OC(C)=O)CO[C@@H]1C[C@@H]2O` [paclitaxel, reference compound], 0%; with `C[C@@]12C[C@@]3(O)O[C@@H](O1)[C@]1(COC(=O)c4ccccc4)[C@H]3C[C@@]12O[C@@H]1O[C@H](CO)[C@@H](O)[C@H](O)[C@H]1O` [paeoniflorin], 3.05%. Same read-out and setting: with `COc1ccc(C(C)=O)c(O)c1` [paeonol] the figure was 0%. `COc1ccc(-c2cc(=O)c3c(O)c(OC)c(O[C@@H]4O[C@H](CO[C@@H]5O[C@@H](C)[C@H](O)[C@@H](O)[C@H]5O)[C@@H](O)[C@H](O)[C@H]4O)cc3o2)cc1` [pectolinarin] displayed an IC50 of 50 µM. `C[C@H]1CC[C@@H]2N(C1)C[C@H]1[C@@H]3C[C@H]4[C@@H](C[C@H](O)[C@H]5C[C@@H](O)CC[C@@]54C)[C@@H]3CC[C@@H]1[C@]2(C)O` [peimine]: the “IA: inhibitory activity of Mtb proteasome” value (“IA: inhibitory activity” for short) is on record as 3.05%. Take `OC[C@H]1O[C@@H](Oc2cc(O)cc(/C=C/c3ccc(O)cc3)c2)[C@H](O)[C@@H](O)[C@@H]1O` [polydatin]: the inhibition at 200 µM was found to be 0%.

`C/C=C(/C)C(=O)O[C@H]1[C@@H](OC(C)=O)c2c(ccc3ccc(=O)oc23)OC1(C)C` [praeruptorin A]: the “IA: inhibitory activity” value was found to be 0.00%. In the case of `O=c1c(-c2ccc(O)cc2)coc2c([C@@H]3O[C@H](CO)[C@@H](O)[C@H](O)[C@H]3O)c(O)ccc12` [puerarin], the inhibition at 200 µM was found to be 0%. As to `O=c1c(O)c(-c2ccc(O)c(O)c2)oc2cc(O)cc(O)c12` [quercetin], the inhibition at 200 µM was over 65%.

Take `Oc1ccc(/C=C/c2cc(O)cc(O)c2)cc1` [resveratrol]: the inhibition at 200 µM was 0%. With `COC(=O)c1c2c(c3ccccc3c1O)OC(C)(C)C=C2` [rubimaillin], the “IA: inhibitory activity” value was 46.37%.

Consider `C[C@@H]1O[C@@H](OC[C@H]2O[C@@H](Oc3c(-c4ccc(O)c(O)c4)oc4cc(O)cc(O)c4c3=O)[C@H](O)[C@@H](O)[C@@H]2O)[C@H](O)[C@H](O)[C@H]1O` [rutin], for which the inhibition at 200 µM is 0%. On the same count and under the same terms, with `OCc1ccccc1O[C@@H]1O[C@H](CO)[C@@H](O)[C@H](O)[C@H]1O` [salicin] the figure was 0%. In the case of `OC[C@H]1O[C@@H](OCCc2ccc(O)cc2)[C@H](O)[C@@H](O)[C@@H]1O` [salidroside], the inhibition at 200 µM came to 34%. For the molecule `C[C@H]1CC[C@@]2(OC1)O[C@H]1C[C@H]3[C@@H]4CC[C@@H]5C[C@@H](O)CC[C@]5(C)[C@H]4CC[C@]3(C)[C@H]1[C@@H]2C` [sarsasapogenin], the inhibition at 200 µM stood at 0%. Turning to `COc1cc2ccc(=O)oc2cc1OC` [scoparone], the inhibition at 200 µM stood at 0%. Still for that read-out and setting: with `O=C(O)C1=C[C@@H](O)[C@@H](O)[C@H](O)C1` [shikimicacid] the figure was 0%; with `COC1=C[C@@H]2[C@@H]3Cc4ccc(OC)c(O)c4[C@]2(CCN3C)CC1=O` [sinomenine], 3.77%. With `O=C1CCC[C@@H]2[C@H]3CCCN4CCC[C@H](CN12)[C@@H]34` [sophoridine], the inhibition at 200 µM amounted to 11.8%.

With `O=C1C[C@@H]2OCC=C3CN4CC[C@]56c7ccccc7N1[C@H]5[C@H]2[C@H]3C[C@H]46` [strychnine], the inhibition at 200 µM amounted to 0%.

With `C=C[C@H]1[C@H](O[C@@H]2O[C@H](CO)[C@@H](O)[C@H](O)[C@H]2O)OC=C2C(=O)OCC[C@]21O` [swertiamain], the “IA: inhibitory activity” value came out at 14.39%. As to `COc1cc(C(=O)O)cc(OC)c1O` [syringic acid], the inhibition at 200 µM was 0%. Still for that read-out and setting: with `COc1c(O[C@@H]2O[C@H](CO)[C@@H](O)[C@H](O)[C@H]2O)cc2occ(-c3ccc(O)cc3)c(=O)c2c1O` [tectoridin] the figure was 0%. Turning to `CC1=C(O)C(=O)C=C2C1=CC=C1[C@@]2(C)CC[C@@]2(C)[C@@H]3C[C@](C)(C(=O)O)CC[C@]3(C)CC[C@]12C` [tripterine], half-maximal inhibition (IC50) required 114 µM and the inhibition at 200 µM was over 65%. With `O=c1ccc2ccc(O)cc2o1` [umbelliferone], the inhibition at 200 µM came to 0%. On the same count and under the same terms, for `COc1c(O)cc(O)c2c(=O)cc(-c3ccccc3)oc12` [wogonin] the value was 54%. For the molecule `COc1c(O[C@@H]2O[C@H](C(=O)O)[C@@H](O)[C@H](O)[C@H]2O)cc(O)c2c(=O)cc(-c3ccccc3)oc12` [wogonoside], the “IA: inhibitory activity” value is listed as 59.01%. As to asiaticoside, the “IA: inhibitory activity” value was found to be 0.00%. Turning to dipsacoside, the “IA: inhibitory activity” value came to 0.00%. As for evodine, the “IA: inhibitory activity” value is 31.77%. For the molecule madecassoside, the “IA: inhibitory activity” value is reported as 0.00%.

With martin hydrochloride, the “IA: inhibitory activity” value was 43.66%.

For the molecule silmyarin, the “IA: inhibitory activity” value is on record as 0.00%. On to tubeimoside A, for which the “IA: inhibitory activity” value stood at 0.00%.
